According to patent EP4600260A1, “KERATIN YK93-4, AND PREPARATION METHOD THEREFOR, PHARMACEUTICAL COMPOSITION THEREOF AND USE THEREOF” (INSTITUTE OF MATERIA MEDICA, CHINESE ACADEMY OF MEDICAL …, priority 2022, dated 2024):

Test system: EL-4 lymphoma
Details: cyclophosphamide 100 mg/kg, intraperitoneal, single; routine blood analysis, P<0.05
Protocol: Preparation of experimental animals: The experimental animals were adapted to the experimental environment (temperature 22°C±2°C, relative humidity 50%±2%) for 1 day.
Subcutaneous inoculation of EL-4 cell suspension to replicate a mouse lymphoma model: The EL-4 tumor tissue was ground into a suspension using a glass homogenizer, the tumor suspension was aspirated with a syringe, the number of live cells was calculated, the cell concentration was adjusted to 2.0*10^6/ml with physiological saline, and then the suspension was injected into the left armpit of mice with 0.2 ml/mouse. […] On the day of treatment, weight was measured, 20µl of blood was obtained from the orbital blood and the routine blood analysis was performed. The tumor blocks were stripped, weighed and photographed, and the tumor suppression rate was calculated.
The tumor suppression rate [(The average weight of the tumor in the normal control group - the average weight of the tumor in the experimental group) / The average weight of the tumor in the normal control group × 100 %] and average value, standard deviation and standard errors of tumor weight were calculated. The data from the groups were compared with each other by T.TEST, and P<0.05 was considered as a significant difference.

Compound: O=P1(N(CCCl)CCCl)NCCCO1 (stereo not shown) [cyclophosphamide, Cyclophosphamide]
- number of leukocytes, lymphocytes, monocytes, and neutrophils: significantly reduced
